Patent US4252808A, “β-Lactam antibacterial agents, their use in pharmaceutical compositions, the process for their preparation and intermediates for use in that process” (Beecham Group Limited, priority 1978, dated 1981)
In brackets after ≈: the same amount, converted by molar mass. Structures can show the parent of a compound that is named as a salt.

Tests used:
Type in all cases: cell-based
Staph. aureus Oxford [1] = test: MIC, nutrient broth (10^-4 dilution); details: Staphylococcus aureus
Staph. aureus Russell [2] = test: MIC, nutrient broth (10^-4 dilution); details: Staphylococcus aureus, Staph. aureus Russell (lactamase producing strain)
Excerpt: *Lactamase producing strains
*Lactamase producing strain

E. coli JT 1 [3] = test: MIC, nutrient broth (10^-4 dilution); details: Escherichia coli, JT1
E. coli NCTC 10418 [4] = test: MIC, nutrient broth (10^-4 dilution); details: Escherichia coli, NCTC10418
B. subtilis [5] = test: MIC, nutrient agar; details: Bacillus subtilis
Staph. aureus Oxford [6] = test: MIC, nutrient agar; details: Staphylococcus aureus
Staph. aureus Russell [7] = test: MIC, nutrient agar; details: Staphylococcus aureus, Staph. aureus Russell (lactamase-producing strain)
Excerpt: *Lactamase-producing strain
*lactamase producing strain

β-Haemolytic Strep CN10 = test: MIC, nutrient agar
E. coli JT 1 [8] = test: MIC, nutrient broth; details: Escherichia coli, JT1
E. coli NCTC 10418 [9] = test: MIC, nutrient broth; details: Escherichia coli, NCTC10418
Staph. aureus Oxford [10] = test: MIC, nutrient broth; details: Staphylococcus aureus
Staph. aureus Russell [11] = test: MIC, nutrient broth; details: Staphylococcus aureus, Staph. aureus Russell (lactamase producing strain)
Excerpt: | *lactamase producing strain

E. coli JT 4 [12] = test: MIC, nutrient agar; details: Escherichia coli, JT4
Ps. aeruginosa Dalgleish = test: MIC, nutrient agar; details: Pseudomonas aeruginosa, Ps. aeruginosa Dalgleish 10^-2
Klebsiella aerogenes A = test: MIC, nutrient agar
Enterobacter cloacae Nl = test: MIC, nutrient agar
P. rettgeri [13] = test: MIC, nutrient agar; details: Providencia rettgeri
P. mirabilis C977 = test: MIC, nutrient agar; details: Proteus mirabilis
P. morganii [14] = test: MIC, nutrient agar; details: Morganella morganii
B. subtilis [15] = test: MIC, serial dilution in nutrient agar with 5% horse blood (Table 1); details: Bacillus subtilis, inoculum 0.001 ml undiluted broth culture
Experimental: (§1) | *Serial dilution in nutrient agar containing 5% horse blood, inoculum | 0.001 ml undiluted broth culture.

E. coli JT 4 [16] = test: as above; details: Escherichia coli, JT4, inoculum 0.001 ml undiluted broth culture
Experimental: as §1

K. aerogenes A [17] = test: as above; details: Klebsiella aerogenes, inoculum 0.001 ml undiluted broth culture
Experimental: as §1

P. mirabilis C 977 [18] = test: as above; details: Proteus mirabilis, C977, inoculum 0.001 ml undiluted broth culture
Experimental: as §1

P. morganii [19] = test: as above; details: Morganella morganii, inoculum 0.001 ml undiluted broth culture
Experimental: as §1

P. rettgeri [20] = test: as above; details: Providencia rettgeri, inoculum 0.001 ml undiluted broth culture
Experimental: as §1

S. aureus 1517 [21] = test: as above; details: Staphylococcus aureus, inoculum 0.001 ml undiluted broth culture
Experimental: as §1

S. aureus Oxford [22] = test: as above; details: Staphylococcus aureus, inoculum 0.001 ml undiluted broth culture
Experimental: as §1

S. aureus Russell = test: as above; details: Staphylococcus aureus, inoculum 0.001 ml undiluted broth culture
Experimental: as §1

S. faecalis 1 [23] = test: as above; details: Enterococcus faecalis, inoculum 0.001 ml undiluted broth culture
Experimental: as §1

S. pyogenes CN 10 [24] = test: as above; details: Streptococcus pyogenes, CN10, inoculum 0.001 ml undiluted broth culture
Experimental: as §1

B. subtilis [25] = test: MIC, serial dilution in DST agar with 10% horse blood (Table 2); details: Bacillus subtilis, inoculum diluted 10^-2
Excerpt: (§2) *Serial dilution in DST agar containing 10% horse blood, inoculum 0.001 m
(§3) broth culture diluted 10^-2 for Grampositive and 10^-4 for
(§4) Gramnegative organisms.

E. cloacae Nl = test: as above; details: Enterobacter cloacae, inoculum diluted 10^-4
Excerpt: as §2, §3, §4

E. coli 0111 = test: as above; details: Escherichia coli, inoculum diluted 10^-4
Excerpt: as §2, §3, §4

K. aerogenes A [26] = test: as above; details: Klebsiella aerogenes, inoculum diluted 10^-4
Excerpt: as §2, §3, §4

P. mirabilis C 977 [27] = test: as above; details: Proteus mirabilis, C977, inoculum diluted 10^-4
Excerpt: as §2, §3, §4

P. morganii 1580 = test: as above; details: Morganella morganii, inoculum diluted 10^-4
Excerpt: as §2, §3, §4

P. rettgeri WM 16 = test: as above; details: Providencia rettgeri, WM16, inoculum diluted 10^-4
Excerpt: as §2, §3, §4

S. aureues Russell = test: as above; details: Staphylococcus aureus, inoculum diluted 10^-2
Excerpt: as §2, §3, §4

S. aureus 1517 [28] = test: as above; details: Staphylococcus aureus, inoculum diluted 10^-2
Excerpt: as §2, §3, §4

S. aureus Oxford [29] = test: as above; details: Staphylococcus aureus, inoculum diluted 10^-2
Excerpt: as §2, §3, §4

S. faecalis 1 [30] = test: as above; details: Enterococcus faecalis, inoculum diluted 10^-2
Excerpt: as §2, §3, §4

S. pneumoniae CN 33 = test: as above; details: Streptococcus pneumoniae, CN33, inoculum diluted 10^-2
Excerpt: as §2, §3, §4

S. pyogenes CN 10 [31] = test: as above; details: Streptococcus pyogenes, CN10, inoculum diluted 10^-2
Excerpt: as §2, §3, §4

**Q.** How did the MIC (Staph. aureus Oxford [1]) turn out when `N[C@@H](C(=O)N[C@@H]1C(=O)N2C(C(=O)O)=Cc3c(-c4ccccc4)nnn3[C@H]12)c1ccccc1` [Compound 24, (3aR,4S)-4,5-Dihydro-5-oxo-9-phenyl-4-D-α-phenylglycylamino-3aH-azeto[1,2-a]v-triazolo [3,4-c]pyrimidine-7-carboxylic acid, trifluoroacetic acid salt] was run?
**A.** 62 µg/mL

**Q.** What about the MIC (Staph. aureus Russell [2]) of the same compound?
**A.** 125 µg/mL

**Q.** And the MIC (E. coli JT 1 [3])?
**A.** 125 µg/mL

**Q.** And the MIC (E. coli NCTC 10418 [4])?
**A.** 125 µg/mL

**Q.** For `O=C(O)C1=Cc2c(-c3ccccc3)nnn2[C@@H]2[C@H](NC(=O)[C@H](O)c3ccccc3)C(=O)N12` [Compound 18, (3aR,4S) 4,5-Dihydro-5-oxo-9-phenyl-4-D-mandelylamino-3aH-azeto-[1,2a]v-triazolo[3,4-c]pyrimidine-7-carboxylic acid], which MIC (Staph. aureus Oxford [1]) is on record?
**A.** 31 µg/mL (≈ 71.9 µM)

**Q.** What about the MIC (Staph. aureus Russell [2]) of the same compound?
**A.** 125 µg/mL (≈ 290 µM)

**Q.** What about the MIC (E. coli JT 1 [3]) of the same compound?
**A.** 125 µg/mL (≈ 290 µM)

**Q.** What about the MIC (E. coli NCTC 10418 [4]) of the same compound?
**A.** 125 µg/mL (≈ 290 µM)

**Q.** `O=C(COc1ccccc1)N[C@@H]1C(=O)N2C(C(=O)O)=Cc3cnnn3[C@H]12` [Compound 11, (3aR,4S)4,5-dihydro-5-oxo-4-phenoxyacetamido-3aH-azeto-[1,2-a]v-triazolo[3,4-c]pyrimidine-7-carboxylic acid] was tested. Which MIC (B. subtilis [5]) did it give?
**A.** 2.5 µg/mL (≈ 7.04 µM)

**Q.** What about the MIC (Staph. aureus Oxford [6]) of the same compound?
**A.** 10 µg/mL (≈ 28.1 µM)

**Q.** What about the MIC (Staph. aureus Russell [7]) of the same compound?
**A.** 50 µg/mL (≈ 141 µM)

**Q.** What about the MIC (β-Haemolytic Strep CN10) of the same compound?
**A.** 10 µg/mL (≈ 28.1 µM)

**Q.** `O=C(COc1ccccc1)N[C@@H]1C(=O)N2C(C(=O)O)=Cc3c(-c4ccc([N+](=O)[O-])cc4)nnn3[C@H]12` [Compound 33, (3aR,4S) 4,5-Dihydro-5-oxo-9-p-nitrophenyl-4-phenoxy-acetamido-3aH azeto[1,2-a]v-triazolo[3,4-c]pyrimidine-7-carboxylic acid] was tested. Which MIC (E. coli JT 1 [8]) did it give?
**A.** 500 µg/mL (≈ 1050 µM)

**Q.** What about the MIC (E. coli NCTC 10418 [9]) of the same compound?
**A.** 500 µg/mL (≈ 1050 µM)

**Q.** And the MIC (Staph. aureus Oxford [10])?
**A.** 16 µg/mL (≈ 33.6 µM)

**Q.** What about the MIC (Staph. aureus Russell [11]) of the same compound?
**A.** 31 µg/mL (≈ 65.1 µM)

**Q.** How did the MIC (B. subtilis [5]) turn out when `CC1=C(C(=O)O)N2C(=O)[C@@H](NC(=O)COc3ccccc3)[C@H]2n2nncc21` [Compound 41, (3aR,4S) 4,5-Dihydro-5-oxo-8-methyl-4-phenoxyacetamido-3aH azeto[1,2-a]v-triazolo[3,4-c]pyrimidine-7-carboxylate acid] was run?
**A.** < 0.2 µg/mL

**Q.** What about the MIC (Staph. aureus Oxford [6]) of the same compound?
**A.** 2.5 µg/mL (≈ 6.77 µM)

**Q.** What about the MIC (Staph. aureus Russell [7]) of the same compound?
**A.** 5 µg/mL (≈ 13.5 µM)

**Q.** And the MIC (β-Haemolytic Strep CN10)?
**A.** 0.5 µg/mL (≈ 1.35 µM)

**Q.** And the MIC (E. coli JT 4 [12])?
**A.** 100 µg/mL (≈ 271 µM)

**Q.** And the MIC (Ps. aeruginosa Dalgleish)?
**A.** 100 µg/mL (≈ 271 µM)

**Q.** What about the MIC (Klebsiella aerogenes A) of the same compound?
**A.** 100 µg/mL (≈ 271 µM)

**Q.** What about the MIC (Enterobacter cloacae Nl) of the same compound?
**A.** 100 µg/mL (≈ 271 µM)

**Q.** And the MIC (P. rettgeri [13])?
**A.** 100 µg/mL (≈ 271 µM)

**Q.** What about the MIC (P. mirabilis C977) of the same compound?
**A.** > 100 µg/mL

**Q.** What about the MIC (P. morganii [14]) of the same compound?
**A.** > 100 µg/mL

**Q.** For `CC1=C(C(=O)O)N2C(=O)[C@@H](NC(=O)Cc3cccs3)[C@H]2n2nncc21` [Compound 43, (3aR,4S) 4,5-Dihydro-5-oxo-8-methyl-4-(2-thienylacetamido)-3aH-azeto[1,2-a]y-triazolo[3,4-c]pyrimidine-7-carboxylic acid], which MIC (B. subtilis [15]) is on record?
**A.** < 0.2 µg/mL

**Q.** And the MIC (E. coli JT 4 [16])?
**A.** > 100 µg/mL

**Q.** And the MIC (K. aerogenes A [17])?
**A.** 50 µg/mL (≈ 139 µM)

**Q.** What about the MIC (P. mirabilis C 977 [18]) of the same compound?
**A.** 10 µg/mL (≈ 27.8 µM)

**Q.** What about the MIC (P. morganii [19]) of the same compound?
**A.** > 100 µg/mL

**Q.** And the MIC (P. rettgeri [20])?
**A.** > 100 µg/mL

**Q.** What about the MIC (S. aureus 1517 [21]) of the same compound?
**A.** 2.5 µg/mL (≈ 6.96 µM)

**Q.** And the MIC (S. aureus Oxford [22])?
**A.** 1 µg/mL (≈ 2.78 µM)

**Q.** And the MIC (S. aureus Russell)?
**A.** 2.5 µg/mL (≈ 6.96 µM)

**Q.** What about the MIC (S. faecalis 1 [23]) of the same compound?
**A.** 2.5 µg/mL (≈ 6.96 µM)

**Q.** What about the MIC (S. pyogenes CN 10 [24]) of the same compound?
**A.** < 0.2 µg/mL

**Q.** What about the MIC (B. subtilis [25]) of the same compound?
**A.** ≤ 0.2 µg/mL

**Q.** And the MIC (E. cloacae Nl)?
**A.** > 100 µg/mL

**Q.** What about the MIC (E. coli 0111) of the same compound?
**A.** 10 µg/mL (≈ 27.8 µM)

**Q.** What about the MIC (K. aerogenes A [26]) of the same compound?
**A.** 2.5 µg/mL (≈ 6.96 µM)

**Q.** What about the MIC (P. mirabilis C 977 [27]) of the same compound?
**A.** 2.5 µg/mL (≈ 6.96 µM)

**Q.** And the MIC (P. morganii 1580)?
**A.** 2.5 µg/mL (≈ 6.96 µM)

**Q.** And the MIC (P. rettgeri WM 16)?
**A.** > 100 µg/mL

**Q.** And the MIC (S. aureues Russell)?
**A.** 1 µg/mL (≈ 2.78 µM)

**Q.** And the MIC (S. aureus 1517 [28])?
**A.** 5 µg/mL (≈ 13.9 µM)

**Q.** And the MIC (S. aureus Oxford [29])?
**A.** 2.5 µg/mL (≈ 6.96 µM)

**Q.** And the MIC (S. faecalis 1 [30])?
**A.** 5 µg/mL (≈ 13.9 µM)

**Q.** What about the MIC (S. pneumoniae CN 33) of the same compound?
**A.** ≤ 0.2 µg/mL

**Q.** And the MIC (S. pyogenes CN 10 [31])?
**A.** ≤ 0.2 µg/mL
